# “Also recorded” adds a separate entry of the source. Where two headings read alike, the source gives them in different places. The star is where a group is joined. Myristoyl = CCCCCCCCCCCCCC(=O)*
# Key:
# [1] = test system: CREB phosphorylation in hippocampal pyramidal neurons; assay: CREB phosphorylation; type: cell-based, rat (Sprague-Dawley, 1- to 2-d-old pups); details: for concentrations inducing pCREB signal statistically different from vehicle: CRF F5,184 = 36.59, P < 0.001, UCN F5,175 = 23.00, P < 0.001; for τ of pCREB increase (time course): CRF df = 128, R^2 = 0.58, UCN df = 193, R^2 = 0.3, nonlinear curve fit
# [2] = test system: CREB phosphorylation in hippocampal neurons; details: 10 μM H89, hippocampal neurons; ref Bayatti et al., 2003; cited from earlier work
# [3] = test system: cAMP in hippocampal pyramidal neurons; assay: cAMP assay; type: cell-based, rat (Sprague-Dawley, 1- to 2-d-old pups); details: ISO 10 μM, 15 min, with IBMX 75 μM; positive control; P < 0.001 vs. '0 min'
# hippocampal neurons = details: 2002, cited from earlier work
# CRFR1 [4] = details: read-out: Ki for CRFR1, ref Perrin et al., 1993; cited from earlier work
# CRFR1α = details: stably transfected cell lines; ref Grammatopoulos et al., 2000; cited from earlier work
# [5] = test system: MAPK signaling in human myocytes; details: UCN, but not CRF, ref Grammatopoulos et al., 2000; cited from earlier work
# CRFR1 [6] = details: modified yeast cell screen; ref Ladds et al., 2003; cited from earlier work
compound,measurement,setting,value
CCCCN(CC)c1nc(C)nc2c1c(C)cn2-c1c(C)cc(C)cc1C [CP154526],effect on STR-induced CREB phosphorylation,"[1]; CP154526 (100 nM) with STR 70 nM, F3,117 = 55.29, P < 0.001",blocked
O=S(=O)(NCCNC/C=C/c1ccc(Br)cc1)c1cccc2cnccc12 [H89],involvement of PKA in CRF-induced CREB phosphorylation,[2],implicated PKA in CRF-induced CREB phosphorylation
same,effect on CRF-induced CREB phosphorylation,"[1]; H89 2 μM, CRF 40 nM, F3,105 = 44.94, P > 0.05",did not block; also recorded: failed to block
same,effect on UCN-induced CREB phosphorylation,"[1]; H89 2 μM, UCN 40 nM, F3,118 = 27.19, P > 0.05",failed to block; also recorded: did not block
"CC(C)NCC(O)c1ccc(O)c(O)c1 (stereo not shown) [ISO, isoproterenol]",cAMP increase,[3],significantly increased cAMP levels
COc1cccc(-c2cc(=O)c3ccccc3o2)c1N [PD98059],effect on CRF-induced CREB phosphorylation,"[1]; PD98059 25 μM, CRF 40 nM, F3,86 = 30.25, P > 0.05",failed to affect; also recorded: unaffected
same,effect on STR-induced CREB phosphorylation,"[1]; PD98059 (25 μM), STR (70 nM), F3,122 = 51.88, P > 0.05, data not shown",unaffected
same,effect on UCN-induced CREB phosphorylation,"[1]; PD98059 (25 μM), UCN 40 nM, F3,126 = 31.29, P < 0.001","attenuated; also recorded: attenuated, but did not block"
Nc1ncnc2c1ncn2C1CCCO1 (stereo not shown) [SQ22536],effect on CRF-induced CREB phosphorylation,"[1]; SQ22536 90 μM, CRF 40 nM, F3,83 = 22.02, P > 0.05",no effect; also recorded: failed to affect
same,effect on UCN-induced CREB phosphorylation,"[1]; SQ22536 90 μM, UCN 40 nM, F3,113 = 25.34, P > 0.05",no effect; also recorded: failed to affect
N#CC(=C(/N)Sc1ccccc1N)/C(C#N)=C(/N)Sc1ccccc1N [U0126],effect on CRF-induced CREB phosphorylation,"[1]; U0126 10 μM, CRF 40 nM, F3,78 = 18.69, P > 0.05",failed to affect; also recorded: unaffected
same,effect on STR-induced CREB phosphorylation,"[1]; U0126 (10 μM), STR (70 nM), F3,126 = 43.18, P > 0.05, data not shown",unaffected
same,effect on UCN-induced CREB phosphorylation,"[1]; U0126 (10 μM), UCN 40 nM, F3,128 = 28.68, P < 0.001","attenuated; also recorded: attenuated, but did not block"
O=C1OC2(c3ccccc31)c1ccc(O)c(O)c1Oc1c2ccc(O)c1O [gallein],effect on CRF-induced CREB phosphorylation,"[1]; gallein 75 μM, CRF 40 nM, 15 min, F3,117 = 30.17, P < 0.001",blocked
same,effect on UCN-induced CREB phosphorylation,"[1]; gallein 75 μM, UCN 40 nM, 15 min, F3,118 = 21.74, P < 0.001",blocked
"PKI 14-22 amide myristoylated: second PKA inhibitor (Myristoyl-SGRTGRRNA-NH2; SMILES CCCCCCCCCCCCCC(=O)N[C@@H](CO)C(=O)NCC(=O)N[C@@H](CCCNC(=N)N)C(=O)N[C@H](C(=O)NCC(=O)N[C@@H](CCCNC(=N)N)C(=O)N[C@@H](CCCNC(=N)N)C(=O)N[C@@H](CC(N)=O)C(=O)N[C@@H](C)C(N)=O)[C@@H](C)O; UniProt P61925 14-22, looked up, fragment)",effect on CRF-induced CREB phosphorylation,"[1]; PKI 14-22 amide myristoylated 1 μM, CRF 40 nM, F3,133 = 38.91, P > 0.05, data not shown",failed to block
same,effect on UCN-induced CREB phosphorylation,"[1]; PKI 14-22 amide myristoylated 1 μM, UCN 40 nM, F3,113 = 39.24, P > 0.05, data not shown",failed to block
cholera toxin [CTX],effect on CRF-induced CREB phosphorylation,[1],abolished; also recorded: blocked
same,effect on UCN-induced CREB phosphorylation,[1],abolished; also recorded: blocked
human/rat corticotropin releasing factor [CRF],effect on hippocampal neuron excitability,"hippocampal neurons; ref Aldenhoff et al., 1983, Blank et al.",rapidly increases hippocampal neuron excitability
same,effect on hippocampal LTP,hippocampal neurons; ref Blank et al.,enhances hippocampal LTP
same,Ki,CRFR1 [4],5.2 to 11 nM
same,"cAMP activation, CRF compared with UCN",CRFR1α,induce cAMP activation equally
same,concentrations inducing pCREB signal statistically different from vehicle,[1],≥ 40 nM
same,τ of pCREB increase (time course),[1],~ 10 min
pertussis toxin [PTX],effect on UCN-induced CREB phosphorylation,"[1]; PTX 500 ng/mL, 18 hr pre-treatment, UCN 40 nM, F3,116 = 40.60, P > 0.05",did not affect
rat urocortin I [UCN],activation of MAPK signaling,[5],activates MAPK signaling
same,CRFR1-dependent G protein activation,CRFR1 [6],CRFR1-dependent activation of Gαq
same,"cAMP activation, CRF compared with UCN",CRFR1α,induce cAMP activation equally
same,concentrations inducing pCREB signal statistically different from vehicle,[1],≥ 40 nM
same,τ of pCREB increase (time course),[1],~ 7 min

# From publication PMC3168589 (The European journal of neuroscience, 2011)
